From paper PMC9161616, “A first-in-human phase 1/2 study of FGF401 and combination of FGF401 with spartalizumab in patients with hepatocellular carcinoma or biomarker-selected solid tumors” (Journal of Experimental & Clinical Cancer Research : CR, 2022)
Like-named read-outs stand apart in the source and are kept apart here.

Columns and labels:
[1] = system: patients with HCC or other solid tumors positive for FGFR4 and KLB; assay: Phase 1 dose escalation, DLTs, MTD/RP2D, FGF401 single agent; assay type: in vivo
Description: Phase 1: Escalation with overdose control (EWOC) principle based on the observed dose-limiting toxicities (DLTs) was employed while escalating dosage starting with 50 mg until the lowest of MTD and/or RP2D was met. Sample size to have reasonable operating characteristics was estimated to be a minimum of 21 evaluable patients.
To further assess the effect of food uptake on FGF401, additional patients were recruited upon observance of clinical activity to receive doses under fed condition, in parallel with the fasted dose escalation. The starting dose was estimated at 80 mg qd. Principles of dose escalation aligned with those under fasted condition.
The primary endpoint for the phase 1 parts was the incidence of DLTs evaluated. The probability of DLTs during the evaluation period was estimated for patients in the dose determining set (DDS) for each treatment arm, FGF401 single agent and FGF401 + spartalizumab combination, to estimate respective MTDs. DDS for the phase 1 single agent or combination comprised safety set patients who either experienced a DLT or had confirmation by both the sponsor and investigators that no DLT occurred during the first cycle, C1 (first 2 cycles: C1, C2) based on at least 66% of planned doses administered in C1 (C1 and C2) with a minimum of 21 (42) days of observation following the first dose. For phase 2, the primary efficacy endpoint to investigate the antitumor activity of FGF401 included time to tumor progression assessed in groups 1 and 2, and overall response rate (ORR) in group 3 based on local assessment per Response Evaluation Criteria in Solid Tumors (RECIST) v1.1.
For the single-agent phase 1 primary outcome, an extended Bayesian hierarchical logistical regression model (BHLRM) was applied to estimate the relationship between dose and stratum (fasted vs fed) specific probability of a patient experiencing a DLT. […]

[2] = Plasma pharmacokinetics of FGF401 (noncompartmental) and food effect; assay type: in vivo, human
Description: Pharmacokinetic endpoints included plasma concentrations and PK parameters of FGF401 and spartalizumab. Pharmacokinetic parameters were determined with noncompartmental method(s) using Phoenix WinNonlin version 6.4 or above (Pharsight Corporation, Mountain View, Califormia, USA). Immunogenicity of spartalizumab was assessed through presence and/or concentration of anti-drug (spartalizumab) antibodies (ADA). Food effect on FGF401 exposure was evaluated through plasma concentration of FGF401 and relevant PK parameters when dosing under fed condition. Safety of the food effect was assessed through incidence and severity of AEs and serious AEs (SAEs), including changes in laboratory values, vital signs, and ECGs when dosing under fed condition. The PK analyses and summary statistics were based on pharmacokinetic analysis set. Individual as well as mean concentration-time profiles were constructed using concentration data for spartalizumab and FGF401. Descriptive statistics for PK parameters included mean, standard deviation, coefficient of variation (CV%) mean, geometric mean, median, minimum, and maximum, with only the latter 3 for time to reach maximum concentration (Tmax) and additional 90% CI for accumulation ratio (Racc). Zero concentrations were not included in the geometric mean calculations. Missing concentrations or PK parameter values were not imputed.

[3] = system: cell-line derived HCC xenografts and patient-derived HCC xenografts; settings: dose-dependent manner; cited from earlier work
[4] = human, plasma, oral, 80 mg, Cycle 1 day 8, 80 mg Fasted, n=6, geometric mean (CV%)
[5] = human, plasma, oral, 80 mg, Cycle 1 day 8, 80 mg Fed, n=4, geometric mean (CV%)
[6] = human, plasma, oral, 150 mg, Cycle 1 day 8, 150 mg Fasted, n=6, geometric mean (CV%)
[7] = low fat meals, 80 mg and 120 mg

COCCNc1cc(NC(=O)N2CCCc3cc(CN4CCN(C)CC4=O)c(C=O)nc32)ncc1C#N [FGF401, roblitinib]
DLT: increase in blood bilirubin ([1]; human, in vivo, 21 days): 2 n
DLT: increase in transaminases ([1]; human, in vivo, 21 days): 4 n
MTD ([1]; single agent, 50 to 150 mg): not reached
dose proportionality of exposures (AUC and Cmax) ([2]; 50 to 150 mg, fasted and fasted-fed combined): increased slightly under dose proportion
Racc ([2]; C1D8 and C2D1 versus C1D1): around 1
Racc ([2]; Cycle 1 day 8, 50 mg Fasted, n=6, geometric mean (CV%)): 0.929 (12.1)
Racc ([2]; Cycle 1 day 8, 80 mg Fasted, n=5, geometric mean (CV%)): 0.97 (14.3)
Racc ([2]; Cycle 1 day 8, 80 mg Fed, n=4, geometric mean (CV%)): 1.04 (18.6)
Racc ([2]; Cycle 1 day 8, 120 mg Fasted, n=24, geometric mean (CV%)): 1.03 (26.2)
Racc ([2]; Cycle 1 day 8, 120 mg Fed, n=15, geometric mean (CV%)): 0.95 (22.5)
Racc ([2]; Cycle 1 day 8, 150 mg Fasted, n=6, geometric mean (CV%)): 0.982 (33.3)
food effect ([2]; dosed with low-fat meals, 80 mg and 120 mg): no food effect
mean trough concentration at steady state (24 h post-dose) versus phospho-FGFR4 IC90 ([2]; even at 50 mg qd): approximately above this IC90
AUC(0-inf) ([2]; human, plasma, oral, 50 mg, Cycle 1 day 8, 50 mg Fasted, n=6, geometric mean (CV%)): 3650 ng·h/mL
half-life ([2]; human, plasma, oral, 50 mg, Cycle 1 day 8, 50 mg Fasted, n=6, geometric mean (CV%), read-out: T1/2 (converted)): 6.57 h
Cmax ([2]; human, plasma, oral, 50 mg, Cycle 1 day 8, 50 mg Fasted, n=7, geometric mean (CV%)): 663 ng/mL
AUC(0-t) ([2]; human, plasma, oral, 50 mg, Cycle 1 day 8, 50 mg Fasted, n=7, geometric mean (CV%), read-out: AUC0-24h): 3650 ng·h/mL
AUC(0-t) ([2]; human, plasma, oral, 50 mg, Cycle 1 day 8, 50 mg Fasted, n=7, geometric mean (CV%), read-out: AUClast): 3460 ng·h/mL
Tmax ([2]; human, plasma, oral, 50 mg, Cycle 1 day 8, 50 mg Fasted, n=7, median [min, max], read-out: Tmax): 1 h
AUC(0-inf) [2, 4]: 5130 ng·h/mL
Cmax [2, 4]: 838 ng/mL
AUC(0-t) ([2]; human, plasma, oral, 80 mg, Cycle 1 day 8, 80 mg Fasted, n=6, geometric mean (CV%), read-out: AUC0-24h): 4850 ng·h/mL
AUC(0-t) ([2]; human, plasma, oral, 80 mg, Cycle 1 day 8, 80 mg Fasted, n=6, geometric mean (CV%), read-out: AUClast): 4840 ng·h/mL
half-life ([2]; human, plasma, oral, 80 mg, Cycle 1 day 8, 80 mg Fasted, n=6, geometric mean (CV%), read-out: T1/2 (converted)): 6.08 h
Tmax ([2]; human, plasma, oral, 80 mg, Cycle 1 day 8, 80 mg Fasted, n=6, median [min, max], read-out: Tmax): 1.01 h
AUC(0-inf) [2, 5]: 5550 ng·h/mL
Cmax [2, 5]: 704 ng/mL
AUC(0-t) ([2]; human, plasma, oral, 80 mg, Cycle 1 day 8, 80 mg Fed, n=4, geometric mean (CV%), read-out: AUC0-24h): 5290 ng·h/mL
AUC(0-t) ([2]; human, plasma, oral, 80 mg, Cycle 1 day 8, 80 mg Fed, n=4, geometric mean (CV%), read-out: AUClast): 5280 ng·h/mL
half-life ([2]; human, plasma, oral, 80 mg, Cycle 1 day 8, 80 mg Fed, n=4, geometric mean (CV%), read-out: T1/2 (converted)): 5.58 h
Tmax ([2]; human, plasma, oral, 80 mg, Cycle 1 day 8, 80 mg Fed, n=4, median [min, max], read-out: Tmax): 2.5 h
AUC(0-inf) ([2]; human, plasma, oral, 120 mg, Cycle 1 day 8, 120 mg Fasted, n=18, geometric mean (CV%)): 7590 ng·h/mL
half-life ([2]; human, plasma, oral, 120 mg, Cycle 1 day 8, 120 mg Fasted, n=18, geometric mean (CV%), read-out: T1/2 (converted)): 5.43 h
Cmax ([2]; human, plasma, oral, 120 mg, Cycle 1 day 8, 120 mg Fasted, n=24, geometric mean (CV%)): 1120 ng/mL
AUC(0-t) ([2]; human, plasma, oral, 120 mg, Cycle 1 day 8, 120 mg Fasted, n=24, geometric mean (CV%), read-out: AUC0-24h): 6970 ng·h/mL
AUC(0-t) ([2]; human, plasma, oral, 120 mg, Cycle 1 day 8, 120 mg Fasted, n=24, geometric mean (CV%), read-out: AUClast): 6480 ng·h/mL
Tmax ([2]; human, plasma, oral, 120 mg, Cycle 1 day 8, 120 mg Fasted, n=24, median [min, max], read-out: Tmax): 1.04 h
AUC(0-inf) ([2]; human, plasma, oral, 120 mg, Cycle 1 day 8, 120 mg Fed, n=15, geometric mean (CV%)): 7980 ng·h/mL
half-life ([2]; human, plasma, oral, 120 mg, Cycle 1 day 8, 120 mg Fed, n=15, geometric mean (CV%), read-out: T1/2 (converted)): 5.58 h
AUC(0-t) ([2]; human, plasma, oral, 120 mg, Cycle 1 day 8, 120 mg Fed, n=16, geometric mean (CV%), read-out: AUC0-24h): 7330 ng·h/mL
Cmax ([2]; human, plasma, oral, 120 mg, Cycle 1 day 8, 120 mg Fed, n=18, geometric mean (CV%)): 1060 ng/mL
AUC(0-t) ([2]; human, plasma, oral, 120 mg, Cycle 1 day 8, 120 mg Fed, n=18, geometric mean (CV%), read-out: AUClast): 7640 ng·h/mL
Tmax ([2]; human, plasma, oral, 120 mg, Cycle 1 day 8, 120 mg Fed, n=18, median [min, max], read-out: Tmax): 3.01 h
AUC(0-inf) [2, 6]: 7850 ng·h/mL
Cmax [2, 6]: 1070 ng/mL
AUC(0-t) ([2]; human, plasma, oral, 150 mg, Cycle 1 day 8, 150 mg Fasted, n=6, geometric mean (CV%), read-out: AUC0-24h): 7510 ng·h/mL
AUC(0-t) ([2]; human, plasma, oral, 150 mg, Cycle 1 day 8, 150 mg Fasted, n=6, geometric mean (CV%), read-out: AUClast): 7550 ng·h/mL
half-life ([2]; human, plasma, oral, 150 mg, Cycle 1 day 8, 150 mg Fasted, n=6, geometric mean (CV%), read-out: T1/2 (converted)): 5.24 h
Tmax ([2]; human, plasma, oral, 150 mg, Cycle 1 day 8, 150 mg Fasted, n=6, median [min, max], read-out: Tmax): 2.42 h
Tmax ([2]; human, plasma, oral, cycle 1 day 1, read-out: median Tmax across phase 1 treatment groups): 1 to 2.98 h
Tmax ([2]; human, plasma, oral, cycle 1 day 8, read-out: median Tmax across phase 1 treatment groups): 1 to 3.01 h
Tmax ([2]; human, plasma, oral, cycle 2 day 1, read-out: median Tmax across phase 1 treatment groups): 1.01 to 3.02 h
half-life ([2]; human, plasma, oral, over all treatments and during all periods, read-out: terminal half-life (T1/2)): 4.91 to 6.57 h
AUC ([2]; human, plasma, oral, 120 mg fasted, C1D8, geometric mean, CV 38.7%, read-out: AUCtau at steady state): 6970 ng·h/mL
overall interpatient variability of drug exposure ([2]; in vivo): moderate
food effect on Tmax [2, 7]: slightly delayed Tmax
food effect on half-life [2, 7]: no effect on half-life
drug accumulation following repeated dosing ([2]; qd dosing): no drug accumulation
tumor response in xenografts [3]: robustly induces regression/stasis
